Source: patent US6579864B1, “3-methylene steroid derivatives” (Akzo Nobel NV, priority 1999, dated 2003)

What was measured:
[1] = test system: DTH reaction in Balb/c mice; test: Delayed type hypersensitivity (DTH) reaction, Tetanus Toxoid footpad swelling; assay type: in vivo; settings: female Balb/c mice, sc. once daily day 1-11, Tetanus Toxoid immunization day 2, challenge day 9, footpad swelling
Experimental: In the delayed type hypersensitivity (DTH) procedure, the effect of a compound on the development of an immune reaction can be observed in mice (details in example 16). Briefly, the compound is administered daily and the animals are immunized subsequently with an antigen in adjuvant. After 7 days the animals are challenged locally by injecting the antigen locally (mostly in the foot) and measuring the subsequently developing local swelling in response to the deposition of the antigen. The degree of this swelling is related to the development of an immune response against the eliciting antigen. The inhibiting action of a compound of this invention on the development of this swelling can be determined, by comparing the treatment group with a placebo treated group. As a reference treatment, administration of glucocorticoids can be used.
Groups of eight female Balb/c (Harlan, Zeist, The Netherlands) mice were used, approximately 8 weeks of age at the start of the experiment. These mice were housed in Macrolon cages, under standard conditions and acclimatized for 3-5 days before the start of the experiment. The groups received either compound or placebo.
They were weighed on day 1 and on the last treatment day. Animals were treated once daily by subcutaneous (sc) injection in the back of the neck or by oral gavage from day 1 till day 11 with a test compound in concentration range from 1.2, 3, 4, 6, to 12 mg/kg. The injection volume was 0.1 mL of a vehicle for injection consisting of physiological saline containing 0.5% gelatin and 5% mannitol. A placebo treated group (vehicle only) and a group treated with 4 mg/kg dexamethasone as reference compound were included in each experiment.
On day 2, animals were immunized with 0.1 ml of a stable suspension of 3.75 Lf Tetanus Toxoid antigen (TT from the RIVM, Zeist, The Netherlands) in 1 mg/ml dimethyl dioctadecylammonium bromide (DDA) from Phase Sep, at 2 places on the breast intradermally.
On day 9 animals were challenged on the ventral side of the right [R] paw with 0.05 mL of a solution containing 50 Lf TT and 1 mg Al(OH)3 per mL. The left [L] footpad (control) received the vehiculum with Al(OH)3 only. After 24 and 48 hours, the left and right footpad thickness (parameters L and R, respectively) were measured with a calipers densitometer in mm and the percentage of antigen-specific footpad swelling was calculated according to the formula: [(R−L)/L]×100%. Results

SMILES	Amount of compound given sc. in mg/kg leading to 50% reduction of the DTH reaction as compared to placebo [1]	melting point
C#CC1(O)CCC2C3C(C)CC4=C(CCC(=C)C4)C3CCC21C (stereo not drawn) [example 1, (7α,17α)-7-methyl-3-methylene-19-norpregn-5(10)-en-20-yn-17-ol]	1.9 to 3.4 mg/kg	–
C=C1CCC2=C(C1)C[C@@H](C)[C@@H]1[C@@H]2CC[C@]2(C)[C@@H](O)CC[C@@H]12 [example 2, (7α,17β)-7-methyl-3-methyleneestr-5(10)-en-17-ol]	20 mg/kg	111.8 °C
C#CC1(O)CCC2C3C(C)CC45CC(=C)CCC4(O5)C3CCC21C (stereo not drawn) [example 3, (5β,7α,17α)-5,10-epoxy-7-methyl-3-methylene-19-norpregn-20-yn-17-ol]	11 mg/kg	–
C=C1CC[C@@]23O[C@]2(C1)C[C@@H](C)[C@H]1[C@@H]2CC[C@H](O)[C@@]2(C)CC[C@@H]13 [example 4, (5β,7α,17β)-5,10-epoxy-7-methyl-3-methyleneestran-17-ol]	>20 mg/kg	125 °C
C=C[C@]1(O)CC[C@H]2[C@H]3[C@H](CC[C@@]21C)[C@H]1CCC(=C)C[C@@H]1C[C@H]3C [example 5, (5α,7α,17α)-7-methyl-3-methylene-19-norpregn-20-en-17-ol]	10 mg/kg	–
C=C1CC[C@H]2[C@@H](C1)C[C@@H](C)[C@@H]1[C@@H]2CC[C@@]2(C)[C@H]1CC[C@@]2(O)CC [example 7, (5β,7α,17α)-7-Methyl-3-methylene-19-norpregnan-17-ol]	6 mg/kg	–
